{
  "source": "patent US5010107A",
  "about": "“Method and composition for achieving anticarcinogenic activity” (priority 1989, dated 1991)",
  "key": {"β-glucuronidase": {"test_system": "β-glucuronidase", "conditions": "cells, blood, cited from earlier work"}, "[1]": {"conditions": "cited from earlier work"}, "[2]": {"test_system": "7,12-dimethylbenz(a)anthracene-induced mammary tumorigenesis", "conditions": "cited from earlier work"}, "carcinogenesis": {"test_system": "carcinogenesis", "conditions": "higher doses of CGT; cited from earlier work"}, "[3]": {"test_system": "7,12-dimethylbenz(a)anthracene-induced mammary tumors", "experiment": "DMBA-induced mammary tumor formation in rats fed CGT, HPR or both", "type": "in vivo, female Sprague Dawley rats", "conditions": "for Rats with tumors / Total No. tumors: 20 rats", "description": "They were maintained on the diets for approximately 4 mos., and were examined (palpated) for mammary tumors weekly. […] The retinoid (HPR) was first dissolved in 25 ml of a vehicle consisting of ethanol-tricaprylin-6% α-tocopherol, then thoroughly mixed with powdered rat chow."}, "[4]": {"test_system": "cellular cAMP (cyclic AMP) and histone kinases", "conditions": "cited from earlier work"}, "[5]": {"test_system": "established mammary tumors", "experiment": "Growth of established mammary tumors in CD8 F1 mice", "type": "in vivo", "description": "(§1) When higher doses (2 mmol/kg diet) of HPR were used, growth arrest was followed within 5 to 10 days by 30% regression of the DMBA-induced mammary tumors. Also, HPR (0.1 uM) inhibited the […] growth of the human breast cancer cell line (MCF-7) to 50% of the control within 7 days."}, "[6]": {"test_system": "established DMBA-induced mammary tumors", "experiment": "Growth of established DMBA-induced mammary tumors", "type": "in vivo, female Sprague Dawley rats", "conditions": "2 mmol/kg diet; within 5 to 10 days", "description": "as §1"}},
  "note": "Where two headings read alike, the source gives them in different places.",
  "data": [
    {"compound": "O=C(O)[C@@H](O)[C@H]1OC(=O)[C@H](O)[C@H]1O", "note": "[GL, D-glucaro-1,4-lactone]", "values": [
      {"measurement": "inhibition of β-glucuronidase", "setting": "β-glucuronidase; urine and intestine", "value": "potent inhibitor of β-glucuronidase"}
    ]},
    {"compound": "2,4-di-O-acetyl-D-glucaro-1,4-lactone", "values": [
      {"measurement": "inhibition of β-glucuronidase", "setting": "β-glucuronidase; urine, intestine and liver", "value": "effective as inhibitors of β-glucuronidase"},
      {"measurement": "release of D-glucaro-1,4-lactone (GL) when fed", "setting": "[1]; in vivo", "value": "slowly release D-glucaro-1,4-lactone (GL)"}
    ]},
    {"compound": "O=C([O-])[C@@H](O)[C@@H](O)[C@H](O)[C@@H](O)C(=O)[O-].[Ca+2]", "note": "[CGT, calcium glucarate]", "values": [
      {"measurement": "inhibition of β-glucuronidase", "setting": "β-glucuronidase; urine, intestine and liver", "value": "effective as inhibitors of β-glucuronidase"},
      {"measurement": "tumor induction relative to controls", "setting": "[2]; 4% CGT diet, started two weeks after carcinogen, by 28 weeks", "value": 30, "unit": "%"},
      {"measurement": "food consumption and weight gain", "setting": "[2]; CGT-supplemented diet vs normal chow diet", "value": "ate quantities of food and had weight gain identical to those on the normal chow diet"},
      {"measurement": "steady-state level of sex hormones", "setting": "[2]; anti-promotional effect of CGT, probable cause", "value": "reduction in the steady-state level of sex hormones"},
      {"measurement": "effectiveness against lung, colon and mammary carcinogenesis", "setting": "carcinogenesis", "value": "effective against lung, colon and mammary carcinogenesis"},
      {"measurement": "release of D-glucaro-1,4-lactone (GL) when fed", "setting": "[1]; fed", "value": "slowly release D-glucaro-1,4-lactone (GL)"},
      {"measurement": "inhibition of tumor incidence", "setting": "[3]; 1.0% CGT alone", "value": 20, "unit": "%"},
      {"measurement": "inhibition of tumors/rat", "setting": "[3]; 1.0% CGT alone", "value": 9, "unit": "%"},
      {"measurement": "Tumor Incidence", "setting": "[3]; 1% CGT in chow diet", "value": 55},
      {"measurement": "Tumors per rat", "setting": "[3]; 1% CGT in chow diet", "value": 1.0},
      {"measurement": "Rats with tumors", "setting": "[3]; 1% CGT in chow diet", "value": 11},
      {"measurement": "Total No. tumors", "setting": "[3]; 1% CGT in chow diet", "value": 20},
      {"measurement": "Tumor Incidence", "setting": "[3]; 2% CGT in chow diet", "value": 55},
      {"measurement": "Tumors per rat", "setting": "[3]; 2% CGT in chow diet", "value": 1.0},
      {"measurement": "Rats with tumors", "setting": "[3]; 2% CGT in chow diet", "value": 11},
      {"measurement": "Total No. tumors", "setting": "[3]; 2% CGT in chow diet", "value": 20},
      {"measurement": "Tumor Incidence", "setting": "[3]; 4% CGT in chow diet", "value": 35},
      {"measurement": "Tumors per rat", "setting": "[3]; 4% CGT in chow diet", "value": 0.5},
      {"measurement": "Rats with tumors", "setting": "[3]; 4% CGT in chow diet", "value": 7},
      {"measurement": "Total No. tumors", "setting": "[3]; 4% CGT in chow diet", "value": 10}
    ]},
    {"compound": "O=C(O)[C@@H](O)[C@@H](O)[C@H](O)[C@@H](O)C(=O)[O-].[K+]", "note": "[potassium hydrogen glucarate]", "values": [
      {"measurement": "inhibition of β-glucuronidase", "setting": "β-glucuronidase; urine, intestine and liver", "value": "effective as inhibitors of β-glucuronidase"},
      {"measurement": "release of D-glucaro-1,4-lactone (GL) when fed", "setting": "[1]; fed", "value": "slowly release D-glucaro-1,4-lactone (GL)"}
    ]},
    {"compound": "CC1=C(/C=C/C(C)=C/C=C/C(C)=C/C(=O)Nc2ccc(O)cc2)C(C)(C)CCC1", "note": "[HPR, N-(4-hydroxyphenyl)retinamide]", "values": [
      {"measurement": "level of cellular cAMP and of histone kinases", "setting": "[4]", "value": "elevate the level of cellular cAMP (cyclic AMP) and of histone kinases"},
      {"measurement": "inhibition of tumor growth", "setting": "[5]", "value": 50, "unit": "%"},
      {"measurement": "regression of the DMBA-induced mammary tumors, following growth arrest", "setting": "[6]", "value": 30, "unit": "%"},
      {"measurement": "inhibition of tumor incidence", "setting": "[3]; 0.75 mmol/kg HPR alone", "value": 15, "unit": "%"},
      {"measurement": "inhibition of tumors/rat", "setting": "[3]; 0.75 mmol/kg HPR alone", "value": 9, "unit": "%"},
      {"measurement": "Rats with tumors", "setting": "[3]; 0.75 mmol/kg diet HPR", "value": 12}
    ]}
  ]
}
